# Data as given in patent US10738028B2, “Spiro three-membered ring, spiro five-membered ring peptide deformylase inhibitor and use thereof in antibacteria and anti-tumor” (priority 2016, dated 2020).
# How the values were obtained:
# Type in all cases: cell-based
# [1] = system: BEL-7402 liver cancer cell line; experiment: CCK-8 proliferation inhibition; conditions: concentration of 30 μM; for Inhibition of proliferation, Liver cancer BEL-7402: 72 hours, 30 µM
# Summary of the method: (§1)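 Plating at 2000 cells/well, then incubation overnight at 37° C. Next, a range of compound concentrations for 72 hours (control 1‰ DMSO). Finally, medium decanted and CCK-8 diluted 1:10 added.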
# [2] = system: MGC-803 gastric cancer cell line; experiment: CCK-8 proliferation inhibition; conditions: concentration of 30 μM; for inhibition at 30 µM: Homo sapiens, MGC-803, 72 h
# Summary of the method: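 CCK-8 read-out after 72 h drug exposure; 2000 cells/well, overnight pre-culture (37° C, 5% CO2); vehicle 1‰ DMSO. Media: PC3 F12; MGC-803/Jurkat 1640; MCF-7 DMEM high glucose; all +10% newborn bovine serum, 1% antibiotics.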
# [3] = system: A549 lung cancer cell line; experiment: CCK-8 proliferation inhibition; conditions: concentration of 30 μM; for inhibition at 30 µM: Homo sapiens, A549, 72 h; for Inhibition of proliferation, Lung cancer A549: 72 hours, 30 µM
# Summary of the method: as §1
# [4] = system: Moraxella catarrhalis (BCA); experiment: MIC, two-fold agar dilution (CLSI), clinical isolates
# Summary of the method: (§2)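 Samples are serially diluted two-fold in agar following CLSI guidance. Plates are then inoculated with the tested strains. The lowest inhibiting concentration is recorded as MIC.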
# [5] = system: methicillin-sensitive Staphylococcus epidermidis (MSSE); experiment: as above
# Summary of the method: as §2
# [6] = system: Enterococcus faecalis (EFA); experiment: as above
# Summary of the method: as §2
# [7] = system: Enterococcus faecium (EFM); experiment: as above
# Summary of the method: as §2
# [8] = system: methicillin-resistant Staphylococcus aureus (MRSA); experiment: as above
# Summary of the method: as §2
# [9] = system: methicillin-resistant Staphylococcus epidermidis (MRSE); experiment: as above
# Summary of the method: as §2
# [10] = system: methicillin-sensitive Staphylococcus aureus (MSSA); experiment: as above
# Summary of the method: as §2
# [11] = system: Escherichia coli (including ESBLs, non-ESBLs); experiment: as above
# Summary of the method: as §2
# [12] = system: Streptococcus pneoumoniae (SPN); experiment: as above
# Summary of the method: as §2
# [13] = system: HCT-116 colorectal cancer cell line; experiment: CCK-8 proliferation inhibition; conditions: concentration of 30 μM, 72 hours, CCK-8; for HCT116 inhibition rate/%: 30 µM
# Summary of the method: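 2000 cells/well, McCoy's 5A + 10% newborn bovine serum; overnight attach, 37° C./5% CO2. Cpd from DMSO stock diluted in medium, 72 h. Readout: CCK-8 (1:10). Ctrl 1‰ DMSO.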
structure (smiles),measurement,setting,value
"CCCC[C@H](CC(=O)NO)C(=O)N1CC2(CCCC2)C[C@H]1C(=O)Nc1ccc(F)cn1 [Example 78, (S)—N-(5-fluoropyridin-2-yl)-2-((R)-2-(2-(hydroxyamino)-2-oxoethyl)hexanoyl)-2-spiro[4.4]nonane-3-carboxamide]",inhibition at 30 µM,"[1]; Homo sapiens, Bel-7402, 72 h",> 50%
same,"Inhibition of proliferation, Liver cancer BEL-7402",[1],67%
same,inhibition at 30 µM,[2],44%
same,inhibition at 30 µM,[3],> 50%
same,"Inhibition of proliferation, Lung cancer A549",[3],54%
same,Anti-bacterial activity (MIC),[4]; strain BCA 14-1,0.5 µg/mL
same,Anti-bacterial activity (MIC),[4]; strain BCA 14-4,1 µg/mL
same,Anti-bacterial activity (MIC),[4]; strain BCA 14-5,1 µg/mL
same,Anti-bacterial activity (MIC),[4]; strain BCA 14-6,0.5 µg/mL
same,Anti-bacterial activity (MIC),[4]; strain BCA 14-7,0.5 µg/mL
same,Anti-bacterial activity (MIC),[4]; strain BCA 14-8,0.25 µg/mL
same,Anti-bacterial activity (MIC),[4]; strain BCA 14-10,0.25 µg/mL
same,"Anti-bacterial activity (MIC), strain MSSE 15-3",[5]; clinical isolate MSSE 15-3,0.25 µg/mL
same,"Anti-bacterial activity (MIC), strain MSSE 15-4",[5]; clinical isolate MSSE 15-4,0.25 µg/mL
same,"Anti-bacterial activity (MIC), strain MSSE 15-5",[5]; clinical isolate MSSE 15-5,0.25 µg/mL
same,"Anti-bacterial activity (MIC), strain MSSE 15-6",[5]; clinical isolate MSSE 15-6,0.03 µg/mL
same,Anti-bacterial activity (MIC),[6]; strain EFA 15-1,> 32 µg/mL
same,Anti-bacterial activity (MIC),[6]; strain EFA 15-2,> 32 µg/mL
same,Anti-bacterial activity (MIC),[6]; strain EFA 15-3,> 32 µg/mL
same,Anti-bacterial activity (MIC),[6]; strain EFA 15-4,> 32 µg/mL
same,Anti-bacterial activity (MIC),[6]; strain EFA 15-5,> 32 µg/mL
same,Anti-bacterial activity (MIC),[6]; strain EFA 15-6,> 32 µg/mL
same,Anti-bacterial activity (MIC),[6]; strain EFA 15-9,> 32 µg/mL
same,Anti-bacterial activity (MIC),[7]; strain EFM 15-1,> 32 µg/mL
same,Anti-bacterial activity (MIC),[7]; strain EFM 15-2,> 32 µg/mL
same,Anti-bacterial activity (MIC),[7]; strain EFM 15-3,> 32 µg/mL
same,Anti-bacterial activity (MIC),[7]; strain EFM 15-4,2 µg/mL
same,Anti-bacterial activity (MIC),[7]; strain EFM 15-5,0.25 µg/mL
same,Anti-bacterial activity (MIC),[7]; strain EFM 15-6,1 µg/mL
same,"Anti-bacterial activity (MIC), strain MRSA 15-1",[8]; clinical isolate MRSA 15-1,0.06 µg/mL
same,"Anti-bacterial activity (MIC), strain MRSA 15-2",[8]; clinical isolate MRSA 15-2,0.5 µg/mL
same,"Anti-bacterial activity (MIC), strain MRSA 15-3",[8]; clinical isolate MRSA 15-3,0.125 µg/mL
same,"Anti-bacterial activity (MIC), strain MRSA 15-4",[8]; clinical isolate MRSA 15-4,0.5 µg/mL
same,"Anti-bacterial activity (MIC), strain MRSE 15-1",[9]; clinical isolate MRSE 15-1,0.125 µg/mL
same,"Anti-bacterial activity (MIC), strain MRSE 15-2",[9]; clinical isolate MRSE 15-2,1 µg/mL
same,"Anti-bacterial activity (MIC), strain MRSE 15-3",[9]; clinical isolate MRSE 15-3,1 µg/mL
same,"Anti-bacterial activity (MIC), strain MRSE 15-7",[9]; clinical isolate MRSE 15-7,1 µg/mL
same,"Anti-bacterial activity (MIC), strain MSSA 15-3",[10]; clinical isolate MSSA 15-3,0.5 µg/mL
same,"Anti-bacterial activity (MIC), strain MSSA 15-4",[10]; clinical isolate MSSA 15-4,0.125 µg/mL
same,"Anti-bacterial activity (MIC), strain MSSA 15-5",[10]; clinical isolate MSSA 15-5,0.03 µg/mL
same,"Anti-bacterial activity (MIC), strain MSSA 15-6",[10]; clinical isolate MSSA 15-6,> 32 µg/mL
same,"Anti-bacterial activity (MIC), strain ECO+ 15-1",[11]; clinical isolate ECO+ 15-1,16 µg/mL
same,"Anti-bacterial activity (MIC), strain ECO+ 15-2",[11]; clinical isolate ECO+ 15-2,> 32 µg/mL
same,"Anti-bacterial activity (MIC), strain ECO+ 15-3",[11]; clinical isolate ECO+ 15-3,> 32 µg/mL
same,"Anti-bacterial activity (MIC), strain ECO+ 15-4",[11]; clinical isolate ECO+ 15-4,> 32 µg/mL
same,"Anti-bacterial activity (MIC), strain ECO− 15-1",[11]; clinical isolate ECO− 15-1,> 32 µg/mL
same,"Anti-bacterial activity (MIC), strain ECO− 15-2",[11]; clinical isolate ECO− 15-2,> 32 µg/mL
same,"Anti-bacterial activity (MIC), strain ECO− 15-3",[11]; clinical isolate ECO− 15-3,> 32 µg/mL
same,"Anti-bacterial activity (MIC), strain ECO− 15-4",[11]; clinical isolate ECO− 15-4,> 32 µg/mL
same,Anti-bacterial activity (MIC),[12]; strain SPN 16-2,0.03 µg/mL
same,Anti-bacterial activity (MIC),[12]; strain SPN 16-4,0.25 µg/mL
same,inhibition at 30 µM,"[13]; Homo sapiens, HCT-116, 72 h, read-out: HCT116 inhibition rate/%",> 50%
same,HCT116 inhibition rate/%,[13],52%
"CCCC[C@H](CC(=O)NO)C(=O)N1CC2(CCCC2)C[C@H]1C(=O)Nc1ncc(C)s1 [Example 79, (S)-2-((R)-2-(2-(hydroxyamino)-2-oxoethyl)hexanoyl)-N-(5-methylthiazol-2-yl)-2-azaspiro[4.4]nonane-3-amide]","Inhibition of proliferation, Liver cancer BEL-7402",[1],77%
same,inhibition at 30 µM,[2],> 50%
same,"Inhibition of proliferation, Gastric cancer MGC-803","[2]; 72 hours, 30 µM",54%
same,inhibition at 30 µM,[3],> 50%
same,"Inhibition of proliferation, Lung cancer A549",[3],50%
same,Anti-bacterial activity (MIC),[4]; strain BCA 14-1,0.25 µg/mL
same,Anti-bacterial activity (MIC),[4]; strain BCA 14-4,1 µg/mL
same,Anti-bacterial activity (MIC),[4]; strain BCA 14-5,0.25 µg/mL
same,Anti-bacterial activity (MIC),[4]; strain BCA 14-6,1 µg/mL
same,Anti-bacterial activity (MIC),[4]; strain BCA 14-7,0.5 µg/mL
same,Anti-bacterial activity (MIC),[4]; strain BCA 14-8,0.5 µg/mL
same,Anti-bacterial activity (MIC),[4]; strain BCA 14-10,0.25 µg/mL
same,Anti-bacterial activity (MIC),[5]; strain MSSE 15-3,0.25 µg/mL
same,Anti-bacterial activity (MIC),[5]; strain MSSE 15-4,1 µg/mL
same,Anti-bacterial activity (MIC),[5]; strain MSSE 15-5,1 µg/mL
same,Anti-bacterial activity (MIC),[5]; strain MSSE 15-6,0.03 µg/mL
same,Anti-bacterial activity (MIC),[6]; strain EFA 15-1,32 µg/mL
same,Anti-bacterial activity (MIC),[6]; strain EFA 15-2,32 µg/mL
same,Anti-bacterial activity (MIC),[6]; strain EFA 15-3,32 µg/mL
same,Anti-bacterial activity (MIC),[6]; strain EFA 15-4,32 µg/mL
same,Anti-bacterial activity (MIC),[6]; strain EFA 15-5,32 µg/mL
same,Anti-bacterial activity (MIC),[6]; strain EFA 15-6,32 µg/mL
same,Anti-bacterial activity (MIC),[6]; strain EFA 15-9,32 µg/mL
same,Anti-bacterial activity (MIC),[7]; strain EFM 15-1,32 µg/mL
same,Anti-bacterial activity (MIC),[7]; strain EFM 15-2,32 µg/mL
same,Anti-bacterial activity (MIC),[7]; strain EFM 15-3,32 µg/mL
same,Anti-bacterial activity (MIC),[7]; strain EFM 15-4,1 µg/mL
same,Anti-bacterial activity (MIC),[7]; strain EFM 15-5,1 µg/mL
same,Anti-bacterial activity (MIC),[7]; strain EFM 15-6,1 µg/mL
same,Anti-bacterial activity (MIC),[8]; strain MRSA 15-1,0.25 µg/mL
same,Anti-bacterial activity (MIC),[8]; strain MRSA 15-2,0.25 µg/mL
same,Anti-bacterial activity (MIC),[8]; strain MRSA 15-3,0.125 µg/mL
same,Anti-bacterial activity (MIC),[8]; strain MRSA 15-4,0.25 µg/mL
same,Anti-bacterial activity (MIC),[9]; strain MRSE 15-1,0.25 µg/mL
same,Anti-bacterial activity (MIC),[9]; strain MRSE 15-2,2 µg/mL
same,Anti-bacterial activity (MIC),[9]; strain MRSE 15-3,2 µg/mL
same,Anti-bacterial activity (MIC),[9]; strain MRSE 15-7,2 µg/mL
same,Anti-bacterial activity (MIC),[10]; strain MSSA 15-3,0.5 µg/mL
same,Anti-bacterial activity (MIC),[10]; strain MSSA 15-4,0.125 µg/mL
same,Anti-bacterial activity (MIC),[10]; strain MSSA 15-5,0.125 µg/mL
same,Anti-bacterial activity (MIC),[10]; strain MSSA 15-6,> 32 µg/mL
same,Anti-bacterial activity (MIC),[11]; strain ECO+ 15-1,32 µg/mL
same,Anti-bacterial activity (MIC),[11]; strain ECO+ 15-2,> 32 µg/mL
same,Anti-bacterial activity (MIC),[11]; strain ECO+ 15-3,> 32 µg/mL
same,Anti-bacterial activity (MIC),[11]; strain ECO+ 15-4,> 32 µg/mL
same,Anti-bacterial activity (MIC),[11]; strain ECO− 15-1,> 32 µg/mL
same,Anti-bacterial activity (MIC),[11]; strain ECO− 15-2,> 32 µg/mL
same,Anti-bacterial activity (MIC),[11]; strain ECO− 15-3,> 32 µg/mL
same,Anti-bacterial activity (MIC),[11]; strain ECO− 15-4,> 32 µg/mL
same,Anti-bacterial activity (MIC),[12]; strain SPN 16-2,0.06 µg/mL
same,Anti-bacterial activity (MIC),[12]; strain SPN 16-4,0.25 µg/mL
same,HCT116 inhibition rate/%,[13],75%
